Legend:
Test in all cases: relative viability (nuclei count vs DMSO), 5 days (fraction); higher = more cells survive
NCI-H3122 = tested on: NCI-H3122
In short: (§1)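 Relative viability divides the nuclei count in treated wells by that in vehicle wells. Lung cancer cell lines were seeded in 1536-well plates, dosed by pin tool the next day, and fixed and stained after 5 days in one step with final 0.05% Triton X-100, 1% formaldehyde and 1 ug/ml Hoechst. Dosing was a single drug or a fixed anchor-drug dose plus five library-drug doses (not always all listed) in √10 steps, and values are medians of duplicate plates imaged at 4×.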

NCI-H2170 = tested on: NCI-H2170
In short: as §1

NCI-H1915 = tested on: NCI-H1915
In short: as §1

NCI-H2023 = tested on: NCI-H2023
In short: as §1

NCI-H1755 = tested on: NCI-H1755
In short: as §1

EMC-BAC-2 = tested on: EMC-BAC-2
In short: as §1

NCI-H727 = tested on: NCI-H727
In short: as §1

NCI-H358 = tested on: NCI-H358
In short: as §1

NCI-H650 = tested on: NCI-H650
In short: as §1

HCC-15 = tested on: HCC-15
In short: as §1

SW 1573 = tested on: SW 1573
In short: as §1

NCI-H2126 = tested on: NCI-H2126
In short: as §1

NCI-H1395 = tested on: NCI-H1395
In short: as §1

NCI-H1563 = tested on: NCI-H1563
In short: as §1

NCI-H1437 = tested on: NCI-H1437
In short: as §1

BEN = tested on: BEN
In short: as §1

LU99A = tested on: LU99A
In short: as §1

NCI-H1734 = tested on: NCI-H1734
In short: as §1

SW 900 = tested on: SW 900
In short: as §1

HOP-62 = tested on: HOP-62
In short: as §1

LC-2-ad = tested on: LC-2-ad
In short: as §1

HCC-44 = tested on: HCC-44
In short: as §1

`CN1CCN(CCOc2cc(OC3CCOCC3)c3c(Nc4c(Cl)ccc5c4OCO5)ncnc3c2)CC1` [Saracatinib] + N=C(N)NC(=N)NCCc1ccccc1 [Phenformin] (partner 250 µM) was tested, and the relative viability (NCI-H3122; first compound 0.02 µM) was 0.385, the relative viability (NCI-H3122; first compound 0.2 µM) was 0.248 and the relative viability (NCI-H3122; first compound 0.6325 µM) was 0.301. For the same compound, the relative viability (NCI-H3122; first compound 2 µM) was 0.285, the relative viability (NCI-H2170; first compound 0.02 µM) was 0.396 and the relative viability (NCI-H2170; first compound 0.2 µM) was 0.332. The relative viability (NCI-H2170; first compound 0.6325 µM) was 0.352, the relative viability (NCI-H2170; first compound 2 µM) was 0.295 and the relative viability (NCI-H1915; first compound 0.02 µM) was 0.374. It also gave a relative viability (NCI-H1915; first compound 0.2 µM) of 0.333, a relative viability (NCI-H1915; first compound 0.6325 µM) of 0.364 and a relative viability (NCI-H1915; first compound 2 µM) of 0.333. For the same compound, the relative viability (NCI-H2023; first compound 0.02 µM) was 0.448, the relative viability (NCI-H2023; first compound 0.2 µM) was 0.303 and the relative viability (NCI-H2023; first compound 0.6325 µM) was 0.236. For the same compound, the relative viability (NCI-H2023; first compound 2 µM) was 0.257, the relative viability (NCI-H1755; first compound 0.02 µM) was 0.665 and the relative viability (NCI-H1755; first compound 0.2 µM) was 0.484. The relative viability (NCI-H1755; first compound 0.6325 µM) was 0.597, the relative viability (NCI-H1755; first compound 2 µM) was 0.478 and the relative viability (EMC-BAC-2; first compound 0.02 µM) was 0.521. The relative viability (EMC-BAC-2; first compound 0.2 µM) was 0.432, the relative viability (EMC-BAC-2; first compound 0.6325 µM) was 0.418 and the relative viability (EMC-BAC-2; first compound 2 µM) was 0.35. The relative viability (NCI-H727; first compound 0.02 µM) was 0.535, the relative viability (NCI-H727; first compound 0.2 µM) was 0.238 and the relative viability (NCI-H727; first compound 0.6325 µM) was 0.465. It also gave a relative viability (NCI-H727; first compound 2 µM) of 0.316, a relative viability (NCI-H358; first compound 0.02 µM) of 0.37 and a relative viability (NCI-H358; first compound 0.2 µM) of 0.298. For the same compound, the relative viability (NCI-H358; first compound 0.6325 µM) was 0.23, the relative viability (NCI-H358; first compound 2 µM) was 0.171 and the relative viability (NCI-H650; first compound 0.02 µM) was 0.465. The relative viability (NCI-H650; first compound 0.2 µM) was 0.429, the relative viability (NCI-H650; first compound 0.6325 µM) was 0.495 and the relative viability (NCI-H650; first compound 2 µM) was 0.461. For the same compound, the relative viability (HCC-15; first compound 0.02 µM) was 0.487, the relative viability (HCC-15; first compound 0.2 µM) was 0.402 and the relative viability (HCC-15; first compound 0.6325 µM) was 0.417. The relative viability (HCC-15; first compound 2 µM) was 0.329, the relative viability (SW 1573; first compound 0.02 µM) was 0.537 and the relative viability (SW 1573; first compound 0.2 µM) was 0.382. The relative viability (SW 1573; first compound 0.6325 µM) was 0.313, the relative viability (SW 1573; first compound 2 µM) was 0.313 and the relative viability (NCI-H2126; first compound 0.02 µM) was 0.537. The relative viability (NCI-H2126; first compound 0.2 µM) was 0.522, the relative viability (NCI-H2126; first compound 0.6325 µM) was 0.524 and the relative viability (NCI-H2126; first compound 2 µM) was 0.473. For the same compound, the relative viability (NCI-H1395; first compound 0.02 µM) was 0.434, the relative viability (NCI-H1395; first compound 0.2 µM) was 0.455 and the relative viability (NCI-H1395; first compound 0.6325 µM) was 0.474. The relative viability (NCI-H1395; first compound 2 µM) was 0.348, the relative viability (NCI-H1563; first compound 0.02 µM) was 0.615 and the relative viability (NCI-H1563; first compound 0.2 µM) was 0.63. For the same compound, the relative viability (NCI-H1563; first compound 0.6325 µM) was 0.603, the relative viability (NCI-H1563; first compound 2 µM) was 0.572 and the relative viability (NCI-H1437; first compound 0.02 µM) was 0.375. The relative viability (NCI-H1437; first compound 0.2 µM) was 0.345, the relative viability (NCI-H1437; first compound 0.6325 µM) was 0.329 and the relative viability (NCI-H1437; first compound 2 µM) was 0.27. The relative viability (BEN; first compound 0.02 µM) was 0.292, the relative viability (BEN; first compound 0.6325 µM) was 0.253 and the relative viability (BEN; first compound 2 µM) was 0.209. The relative viability (LU99A; first compound 0.02 µM) was 0.938, the relative viability (LU99A; first compound 0.2 µM) was 0.617 and the relative viability (LU99A; first compound 0.6325 µM) was 0.879. For the same compound, the relative viability (LU99A; first compound 2 µM) was 0.707, the relative viability (NCI-H1734; first compound 0.02 µM) was 0.375 and the relative viability (NCI-H1734; first compound 0.6325 µM) was 0.375. It also gave a relative viability (NCI-H1734; first compound 2 µM) of 0.308, a relative viability (SW 900; first compound 0.02 µM) of 0.756 and a relative viability (SW 900; first compound 0.2 µM) of 0.36. It also gave a relative viability (SW 900; first compound 0.6325 µM) of 0.493, a relative viability (SW 900; first compound 2 µM) of 0.47 and a relative viability (HOP-62; first compound 0.02 µM) of 0.661. It also gave a relative viability (HOP-62; first compound 0.2 µM) of 0.629, a relative viability (HOP-62; first compound 0.6325 µM) of 0.593 and a relative viability (HOP-62; first compound 2 µM) of 0.623. The relative viability (LC-2-ad; first compound 0.02 µM) was 0.588, the relative viability (LC-2-ad; first compound 0.2 µM) was 0.554 and the relative viability (LC-2-ad; first compound 0.6325 µM) was 0.652. For the same compound, the relative viability (LC-2-ad; first compound 2 µM) was 0.546, the relative viability (HCC-44; first compound 0.02 µM) was 0.316 and the relative viability (HCC-44; first compound 0.2 µM) was 0.227. The relative viability (HCC-44; first compound 0.6325 µM) was 0.333 and the relative viability (HCC-44; first compound 2 µM) was 0.199.

From the supplement of paper PMC10307832
